# Results from PubChem BioAssay AID330 (DTP/NCI, 2004).
# “And” between values parts separate entries of the source, which are not always exact repeats. Equal entries are not always repeated. Inconclusive results and toxic doses are left out.
# Test system: P388 leukemia ip, CD2F1 mice, survival T/C
# Experiment: NCI In Vivo Anticancer Drug Screen. Data for tumor model P388 Leukemia (intraperitoneal) in CD2F1 (CDF1) mice
# Details: endpoint: median survival time, higher = longer survival
# Summary of the method: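 Mice carrying the transplanted tumor received test compound or vehicle. Survival was recorded in each group, and the value is the treated-group measurement divided by that of the vehicle-treated control group.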
# [1] = dose: 50.0 mg/kg/injection, schedule: Q01DX005 (ip), vehicle: Klucel (hydroxypropylcellulose) (HPC)
# [2] = dose: 100.0 mg/kg/injection, schedule: Q01DX005 (ip), vehicle: Klucel (hydroxypropylcellulose) (HPC)
# [3] = dose: 200.0 mg/kg/injection, schedule: Q01DX005 (ip), vehicle: Klucel (hydroxypropylcellulose) (HPC)
# [4] = dose: 60.0 mg/kg/injection, schedule: Q01DX005 (ip), vehicle: saline with Tween-80
# [5] = dose: 120.0 mg/kg/injection, schedule: Q01DX005 (ip), vehicle: saline with Tween-80
# [6] = dose: 60.0 mg/kg/injection, schedule: Q01DX005 (ip), vehicle: saline
# [7] = dose: 120.0 mg/kg/injection, schedule: Q01DX005 (ip), vehicle: saline
# [8] = dose: 240.0 mg/kg/injection, schedule: Q01DX005 (ip), vehicle: saline
compound,measurement,setting,value
Cc1nc2c(cnn2C)c(=O)[nH]1,T/C,[1],96 % of control
same,T/C,[2],98 % of control
same,T/C,[3],97 % of control
CC(C)NC(=O)OCc1ncn(-c2ccccc2)c1COC(=O)NC(C)C,T/C,"dose: 12.5 mg/kg/injection, schedule: Q01DX005 (ip), vehicle: Klucel (hydroxypropylcellulose) (HPC)",103 % of control
same,T/C,"dose: 25.0 mg/kg/injection, schedule: Q01DX005 (ip), vehicle: Klucel (hydroxypropylcellulose) (HPC)",103 % of control
same,T/C,[1],87 % of control and 97 % of control
same,T/C,[2],87 % of control and 91 % of control
O=c1cc(F)cc[nH]1,T/C,"dose: 50.0 mg/kg/injection, schedule: Q01DX005 (ip), vehicle: saline",103 % of control
same,T/C,"dose: 100.0 mg/kg/injection, schedule: Q01DX005 (ip), vehicle: saline",104 % of control
same,T/C,"dose: 200.0 mg/kg/injection, schedule: Q01DX005 (ip), vehicle: saline",109 % of control
CC(C)=CC1OC2CC3(C)C4=C(CCC3(C)C2C(C)C1O)C1(C)CCC(O)C(C)(C)C1CC4 (stereo not drawn),T/C,"dose: 15.0 mg/kg/injection, schedule: Q01DX009 (ip), vehicle: saline",98 % of control
same,T/C,"dose: 30.0 mg/kg/injection, schedule: Q01DX009 (ip), vehicle: saline",102 % of control
same,T/C,"dose: 60.0 mg/kg/injection, schedule: Q01DX009 (ip), vehicle: saline",100 % of control
C[S+](C)CCO,T/C,"dose: 50.0 mg/kg/injection, schedule: Q01DX009 (ip), vehicle: saline",100 % of control
same,T/C,"dose: 100.0 mg/kg/injection, schedule: Q01DX009 (ip), vehicle: saline",102 % of control
same,T/C,"dose: 200.0 mg/kg/injection, schedule: Q01DX009 (ip), vehicle: saline",98 % of control
same,T/C,"dose: 400.0 mg/kg/injection, schedule: Q01DX009 (ip), vehicle: saline",95 % of control
Cc1ccc([P+](CCN2C(=O)c3ccccc3C2=O)(c2ccc(C)cc2)c2ccc(C)cc2)cc1,T/C,"dose: 0.39 mg/kg/injection, schedule: Q01DX009 (ip), vehicle: water",111 % of control
same,T/C,"dose: 0.78 mg/kg/injection, schedule: Q01DX009 (ip), vehicle: water",121 % of control
same,T/C,"dose: 1.56 mg/kg/injection, schedule: Q01DX009 (ip), vehicle: water",115 % of control
same,T/C,"dose: 3.13 mg/kg/injection, schedule: Q01DX009 (ip), vehicle: water",121 % of control
CC1OC(C)C(O)C2=C1C(=O)c1ccccc1C2=O (stereo not drawn),T/C,[4],100 % of control
same,T/C,[5],100 % of control
COC(=O)c1cc2c(cc1C(=O)OC)C(=O)c1ccccc1C2=O,T/C,[4],100 % of control
same,T/C,[5],101 % of control
same,T/C,"dose: 240.0 mg/kg/injection, schedule: Q01DX005 (ip), vehicle: saline with Tween-80",92 % of control
Cc1cc(C)n(-c2ccc(S(=O)(=O)N3CCC(=O)N(Cc4ccccc4)C3=S)cc2)n1,T/C,"dose: 50.0 mg/kg/injection, schedule: Q01DX005 (ip), vehicle: saline with Tween-80",100 % of control
same,T/C,"dose: 100.0 mg/kg/injection, schedule: Q01DX005 (ip), vehicle: saline with Tween-80",93 % of control
same,T/C,"dose: 200.0 mg/kg/injection, schedule: Q01DX005 (ip), vehicle: saline with Tween-80",93 % of control
[O]=[Nb],T/C,"dose: 2.5 mg/kg/injection, schedule: Q01DX009 (ip), vehicle: saline with Tween-80",100 % of control
same,T/C,"dose: 5.0 mg/kg/injection, schedule: Q01DX009 (ip), vehicle: saline with Tween-80",100 % of control
Cc1cc(Cl)c2ccc(N(C)C)cc2n1,T/C,"dose: 50.0 mg/kg/injection, schedule: Q01DX009 (ip), vehicle: saline with Tween-80",119 % of control
same,T/C,"dose: 100.0 mg/kg/injection, schedule: Q01DX009 (ip), vehicle: saline with Tween-80",112 % of control
same,T/C,"dose: 200.0 mg/kg/injection, schedule: Q01DX009 (ip), vehicle: saline with Tween-80",110 % of control
CC1(C)CC(=O)N(CN2CCOCC2)C(=O)C1,T/C,[6],100 % of control
same,T/C,[7],100 % of control
same,T/C,[8],110 % of control
O=C(Nc1nc2ccc([N+](=O)[O-])cc2s1)C(F)(F)C(F)(F)F,T/C,"dose: 6.25 mg/kg/injection, schedule: Q01DX009 (ip), vehicle: saline",112 % of control
same,T/C,"dose: 12.5 mg/kg/injection, schedule: Q01DX009 (ip), vehicle: saline",112 % of control
same,T/C,"dose: 25.0 mg/kg/injection, schedule: Q01DX009 (ip), vehicle: saline",106 % of control
O=C(Nc1ccc(C2=NCCCN2)cc1)c1ccc(NC(=O)c2ccc(C3=NCCCN3)cc2)cc1,T/C,"dose: 5.0 mg/kg/injection, schedule: Q01DX009 (ip), vehicle: saline",200 % of control
same,T/C,"dose: 10.0 mg/kg/injection, schedule: Q01DX009 (ip), vehicle: saline",250 % of control
same,T/C,"dose: 12.5 mg/kg/injection, schedule: Q04DX003 (ip), vehicle: saline",160 % of control
same,T/C,"dose: 20.0 mg/kg/injection, schedule: Q04DX003 (ip), vehicle: saline with Tween-80",186 % of control
same,T/C,"dose: 375.0 micrograms/kg/injection, schedule: Q04DX003 (ip), vehicle: saline",109 % of control
same,T/C,"dose: 750.0 micrograms/kg/injection, schedule: Q04DX003 (ip), vehicle: saline",100 % of control
same,T/C,"dose: 1500.0 micrograms/kg/injection, schedule: Q04DX003 (ip), vehicle: saline",109 % of control
C/C(=N\NC(=O)c1ccccc1)c1cccc(/C(C)=N/NC(=O)c2ccccc2)n1.CC(=O)[O-].CC(=O)[O-].[Zn+2],T/C,"dose: 100.0 mg/kg/injection, schedule: Q01DX001 (ip), vehicle: saline with Tween-80",95 % of control
same,T/C,"dose: 200.0 mg/kg/injection, schedule: Q01DX001 (ip), vehicle: saline with Tween-80",104 % of control
same,T/C,"dose: 400.0 mg/kg/injection, schedule: Q01DX001 (ip), vehicle: saline with Tween-80",100 % of control
COCC#CCN(C)C,T/C,[6],95 % of control
same,T/C,[7],99 % of control
same,T/C,[8],95 % of control
O=C1Nc2cnc(Cl)nc2Nc2ccc(Cl)cc21,T/C,[1],92 % of control
same,T/C,[2],99 % of control
same,T/C,[3],89 % of control
CSC(=S)n1nc(C)c(N=Nc2cccc(C)c2C)c1C,T/C,"dose: 100.0 mg/kg/injection, schedule: Q04DX002 (ip), vehicle: Klucel (hydroxypropylcellulose) (HPC)",96 % of control
same,T/C,"dose: 200.0 mg/kg/injection, schedule: Q04DX002 (ip), vehicle: Klucel (hydroxypropylcellulose) (HPC)",96 % of control
same,T/C,"dose: 400.0 mg/kg/injection, schedule: Q04DX002 (ip), vehicle: Klucel (hydroxypropylcellulose) (HPC)",100 % of control
O=C(O)C1CCC(=O)N1C(=O)OCc1ccccc1 (stereo not drawn),T/C,"dose: 100.0 mg/kg/injection, schedule: Q04DX003 (ip), vehicle: saline with Tween-80",95 % of control
same,T/C,"dose: 200.0 mg/kg/injection, schedule: Q04DX003 (ip), vehicle: saline with Tween-80",90 % of control
same,T/C,"dose: 400.0 mg/kg/injection, schedule: Q04DX003 (ip), vehicle: saline with Tween-80",90 % of control
C1CCC2C(C1)CC[N-]C2CCC1[N-]CCC2CCCCC21.C1CCC2C(C1)CC[N-]C2CCC1[N-]CCC2CCCCC21.[Ni+2].[O-][Cl+3]([O-])([O-])O (stereo not drawn),T/C,"dose: 25.0 mg/kg/injection, schedule: Q01DX001 (ip), vehicle: saline",100 % of control
same,T/C,"dose: 50.0 mg/kg/injection, schedule: Q01DX001 (ip), vehicle: saline",100 % of control and 101 % of control
same,T/C,"dose: 100.0 mg/kg/injection, schedule: Q01DX001 (ip), vehicle: saline",101 % of control and 108 % of control and 97 % of control
same,T/C,"dose: 200.0 mg/kg/injection, schedule: Q01DX001 (ip), vehicle: saline",98 % of control and 100 % of control
O=C1CCOCCCOCCC(=O)OCCCOC(=O)CCOCCCOCCC(=O)OCCCO1,T/C,[1],100 % of control
same,T/C,[2],105 % of control
